Measured values as given in patent US20050239791A1, “Substituted 1-heteroaryl-4-substituted piperazine and piperidine analogues” (priority 2004, published 2005).
pEC50: −log10 of the molar value. Read-outs that look alike come from different tables or passages of the source.

Biological target: MCH receptor (Macaca fascicularis, UniProt A0A2K5VT41)
Assay: Calcium mobilization assay (Example 6)
Format: cell-based, Cynomolgus macaque
Text: This Example illustrates a representative functional assay for monitoring the response of cells expressing melanin concentrating hormone receptors to melanin concentrating hormone. This assay can also be used to determine if test compounds act as agonists or antagonists of melanin concentrating hormone receptors.
Chinese Hamster Ovary (CHO) cells (American Type Culture Collection; Manassas, Va.) are stably transfected with the MCH expression vector via calcium phosphate precipitation, and are grown to a density of 15,000 cells/well in FALCON™ black-walled, clear-bottomed 96-well plates (#3904, BECTON-DICKINSON, Franklin Lakes, N.J.) in Ham's F12 culture medium (MEDIATECH, Herndon, Va.) supplemented with 10% fetal bovine serum, 25 mM HEPES and 500 μg/mL (active) G418. Prior to running the assay, the culture medium is emptied from the 96 well plates. […]
Fluorescence response is monitored upon the addition of either […] or test compound by a FLIPR™ plate reader (Molecular Devices, Sunnyvale, Calif.) by excitation at 480 nm and emission at 530 nm.
In order to measure the ability of a test compound to antagonize the response of cells expressing MCH receptors to MCH, the EC50 of MCH is first determined. […]
Test compounds are dissolved in DMSO, diluted in 20 μL KRH buffer, and added to cells prepared as described above. […] Just prior to determining the fluorescence response, 100 μL human MCH diluted in KRH buffer to 2×EC50 is automatically added by the FLIPR instrument to each well of the 96 well plate for a final sample volume of 200 μL and a final MCH concentration of EC50. […] Typically, antagonists of the MCH receptor decrease the fluorescence response by about 20%, preferably by about 50%, and most preferably by at least 80% as compared to matched controls. IC50 values for MCHR antagonists are determined using SIGMAPLOT software (SPSS Inc., Chicago, Ill.) and standard techniques. […]

Chain of MCH receptor (A0A2K5VT41 70-422): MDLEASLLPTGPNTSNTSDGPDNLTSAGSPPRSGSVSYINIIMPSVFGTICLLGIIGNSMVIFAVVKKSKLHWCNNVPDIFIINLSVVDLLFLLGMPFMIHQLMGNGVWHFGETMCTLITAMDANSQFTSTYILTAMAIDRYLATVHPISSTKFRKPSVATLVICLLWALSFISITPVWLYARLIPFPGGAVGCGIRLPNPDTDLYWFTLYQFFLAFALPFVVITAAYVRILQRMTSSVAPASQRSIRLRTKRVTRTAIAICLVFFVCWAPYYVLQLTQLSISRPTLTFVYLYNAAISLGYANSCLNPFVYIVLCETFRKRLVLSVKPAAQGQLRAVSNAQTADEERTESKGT

| Compound | pEC50 | pEC50 (calcium mobilization (FLIPR, Fluo-3) in CHO cells stably transfected with the MCH expression vector, read-out: EC50, determined as described in Example 6) |
| --- | --- | --- |
| COc1cc(N2CCN(C(C)c3ccnc(C)c3C)CC2)ccc1Cl (stereo not drawn) [Example 1, 1-(4-chloro-3-methoxyphenyl)-4-[1-(2,3-dimethylpyridin-4-yl)-ethyl]-piperazine] | > 6.00 | – |
| COc1cc(N2CCN(C(C)c3ccnc4ccccc34)CC2)ccc1Cl (stereo not drawn) [Example 2, 4-{1-[4-(4-chloro-3-methoxyphenyl)piperazin-1-yl]ethyl}quinoline] | > 6.00 | – |
| Cc1nccc(CN2CCC(O)(c3ccc(Cl)c(C(F)(F)F)c3)CC2)c1C [Example 3, 4-(4-chloro-3-trifluoromethylphenyl)-1-(2,3-dimethyl-pyridin-4-ylmethyl)-piperidin-4-ol] | – | > 6.00 |
